Data set [1] has as its system Abutilon theophrasti. The data set is described as follows: Herbicidal activity against velvetleaf assessed as seed germination at 5 mM after 4 days relative to control. Type of data set: functional.
The test system of data set [2] is Abutilon theophrasti. In words: Herbicidal activity against velvetleaf assessed as seed germination at 1 mM after 4 days relative to control. Type of data set: functional.
Data set [3] concerns Abutilon theophrasti. In words: Herbicidal activity against velvetleaf assessed as seed germination at 2.5 mM after 4 days relative to control. Type of data set: functional.
Data set [4] can be described thus: Inhibition of cAMP phosphodiesterase at 0.05 mM.
A short description of data set [5]: Toxicity in rat. Type of data set: organism-based. The note with it: in vivo.

The values that follow come from ChEMBL document CHEMBL1149000, “Effects of p-Methoxycinnamaldehyde from Star Anise and Related Cinnamic Acid Derivatives on Velvetleaf Germination” (J Nat Prod, 1986).

`COc1ccccc1/C=C/C=O`: the figures for the Activity in the data set with Abutilon theophrasti [1], with Abutilon theophrasti [2] and in the data set with Abutilon theophrasti [3] were 0%, 77% and 3%, respectively.

As for `COc1ccc(/C=C/C(=O)O)cc1` [4-METHOXYCINNAMIC ACID], the Activity is reported as 83% in the data set with Abutilon theophrasti [1], 107% in the data set on Abutilon theophrasti [2] and 83% in the data set on Abutilon theophrasti [3].

Take `C/C=C/c1ccc(OC)cc1` [ANETHOLE]: the Activity in the data set on Abutilon theophrasti [1] was determined as 95%; with Abutilon theophrasti [2], 98%; in the data set with Abutilon theophrasti [3], 100%.

`O=C/C=C/c1ccccc1` [CINNAMALDEHYDE]: the Activity in the data set on Abutilon theophrasti [1] is reported as 0%; in the data set with Abutilon theophrasti [2] it was 57%; in the data set on Abutilon theophrasti [3], 0%.

For the compound `O=C(O)/C=C/c1ccccc1` [CINNAMIC ACID], the Activity in the data set on Abutilon theophrasti [1] was 5%; in the data set with Abutilon theophrasti [2], 100%; in the data set on Abutilon theophrasti [3], 77%.

Turning to `OC/C=C/c1ccccc1` [CINNAMIC ALCOHOL], the Activity in the data set on Abutilon theophrasti [1] is recorded as 0%; in the data set on Abutilon theophrasti [2], 73%; in the data set on Abutilon theophrasti [3], 0%.

For orientation: inhibition means the drop in the measured response relative to a control, in per cent. By LD50 is commonly meant the dose at which mortality reaches 50%. A high value points to lower toxicity. In the case of `COc1ccc(/C=C/C=O)cc1` [PARA-METHOXY CINNAMALDEHYDE], the results for the Activity with Abutilon theophrasti [1], in the data set on Abutilon theophrasti [2] and in the data set with Abutilon theophrasti [3] were 1%, 83% and 8%, respectively. In addition, the inhibition in data set [4] was 50%. The median lethal dose (LD50) in data set [5] was > 5000 mg/kg.
